# Biological target: human APJ receptor (Homo sapiens (Human), UniProt P35414)
# Assay: [35S]GTPγS binding assay on membranes from CHO cells stably expressing human APJ receptor
# Type: biochemical
# Settings: read-out: Activity hAPJ SPA EC50 IP
# How it was run: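 Agonist-driven [35S]GTPγS (0.2 nM) binding was measured over 90 min at room temperature on human APJ-expressing CHO membranes with bead capture, in buffer containing 3 μM GDP, 200 mM NaCl and 5 mM MgCl2 (pH 7.5). Excess unlabelled GTPγS (100 μM) gave nonspecific signal; EC50 from non-linear fits.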
# Sequence of human APJ receptor (P35414 whole entry): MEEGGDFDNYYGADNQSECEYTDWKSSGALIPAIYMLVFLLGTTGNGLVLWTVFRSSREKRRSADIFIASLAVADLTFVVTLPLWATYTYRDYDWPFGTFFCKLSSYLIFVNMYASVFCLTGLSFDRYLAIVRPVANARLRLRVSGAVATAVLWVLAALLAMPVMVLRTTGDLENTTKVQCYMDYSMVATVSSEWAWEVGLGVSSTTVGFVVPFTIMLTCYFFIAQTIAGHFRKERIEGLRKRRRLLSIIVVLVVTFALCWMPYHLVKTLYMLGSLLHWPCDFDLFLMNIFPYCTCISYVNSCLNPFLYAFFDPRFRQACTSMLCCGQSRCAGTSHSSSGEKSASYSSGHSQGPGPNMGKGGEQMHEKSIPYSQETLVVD
row,Substance,EC50 [nM]
1,"(2S,3R)-3-(5-chloro-2-pyridinyl)-N-(4-(1,3-dimethoxy-2-propanyl)-5-((2R,5R)-5-methyltetrahydro-2-furanyl)-4H-1,2,4-triazol-3-yl)-2-butanesulfonamide or (2S,3R)-3-(5-chloro-2-pyridinyl)-N-(4-(1,3-dimethoxy-2-propanyl)-5-((2S,5S)-5-methyltetrahydro-2-furanyl)-4H-1,2,4-triazol-3-yl)-2-butanesulfonamide [Example 373.0]",8
2,"(2S,3R)-3-(5-chloro-2-pyrimidinyl)-N-(4-(1,3-dimethoxy-2-propanyl)-5-((2R,5R)-5-methyltetrahydro-2-furanyl)-4H-1,2,4-triazol-3-yl)-2-butanesulfonamide or (2S,3R)-3-(5-chloro-2-pyrimidinyl)-N-(4-(1,3-dimethoxy-2-propanyl)-5-((2S,5S)-5-methyltetrahydro-2-furanyl)-4H-1,2,4-triazol-3-yl)-2-butanesulfonamide [Example 374.0]",5.6
3,"(2S,3R)-3-(5-chloropyrimidin-2-yl)-N-(4-(2,6-dimethoxyphenyl)-5-((R)-1,1-dioxidotetrahydrothiophen-3-yl)-4H-1,2,4-triazol-3-yl)butane-2-sulfonamide or (2S,3R)-3-(5-chloropyrimidin-2-yl)-N-(4-(2,6-dimethoxyphenyl)-5-((S)-1,1-dioxidotetrahydrothiophen-3-yl)-4H-1,2,4-triazol-3-yl)butane-2-sulfonamide [Example 189.0]",200
4,"(2S,3R)-3-(5-chloropyrimidin-2-yl)-N-(4-(2,6-dimethoxyphenyl)-5-((R)-1,1-dioxidotetrahydrothiophen-3-yl)-4H-1,2,4-triazol-3-yl)butane-2-sulfonamide or (2S,3R)-3-(5-chloropyrimidin-2-yl)-N-(4-(2,6-dimethoxyphenyl)-5-((S)-1,1-dioxidotetrahydrothiophen-3-yl)-4H-1,2,4-triazol-3-yl)butane-2-sulfonamide [Example 190.0]",300
5,"(2S,3R)-3-(5-chloropyrimidin-2-yl)-N-(4-(2,6-dimethoxyphenyl)-5-((R)-3-oxoisoindolin-1-y1)-4H-1,2,4-triazol-3-yl)butane-2-sulfonamide or (2S,3R)-3-(5-chloropyrimidin-2-yl)-N-(4-(2,6-dimethoxyphenyl)-5-((S)-3-oxoisoindolin-1-yl)-4H-1,2,4-triazol-3-yl)butane-2-sulfonamide [Example 235.0]",830
6,"(2S,3R)-3-(5-chloropyrimidin-2-yl)-N-(4-(2,6-dimethoxyphenyl)-5-((S)-3-oxoisoindolin-1-yl)-4H-1,2,4-triazol-3-yl)butane-2-sulfonamide or (2S,3R)-3-(5-chloropyrimidin-2-yl)-N-(4-(2,6-dimethoxyphenyl)-5-((R)-3-oxoisoindolin-1-yl)-4H-1,2,4-triazol-3-yl)butane-2-sulfonamide [Example 234.0]",230
7,"(2S,3R)-3-(5-chloropyrimidin-2-yl)-N-(4-(3,5-dibromo-2,6-dimethoxyphenyl)-5-((R)-tetrahydrofuran-3-yl)-4H-1,2,4-triazol-3-yl)butane-2-sulfonamide or (2S,3R)-3-(5-chloropyrimidin-2-yl)-N-(4-(3,5-dibromo-2,6-dimethoxyphenyl)-5-((S)-tetrahydrofuran-3-yl)-4H-1,2,4-triazol-3-yl)butane-2-sulfonamide [Example 331.0]",3500
8,"(2S,3R)-3-(5-chloropyrimidin-2-yl)-N-(4-(4,6-dimethoxypyrimidin-5-yl)-5-((R)-5,5-dimethyltetrahydrofuran-3-yl)-4H-1,2,4-triazol-3-yl)butane-2-sulfonamide or (2S,3R)-3-(5-chloropyrimidin-2-yl)-N-(4-(4,6-dimethoxypyrimidin-5-yl)-5-((S)-5,5-dimethyltetrahydrofuran-3-yl)-4H-1,2,4-triazol-3-yl)butane-2-sulfonamide [Example 317.0]",52
9,"(2S,3R)-3-(5-chloropyrimidin-2-yl)-N-(4-(4,6-dimethoxypyrimidin-5-yl)-5-((R)-5,5-dimethyltetrahydrofuran-3-yl)-4H-1,2,4-triazol-3-yl)butane-2-sulfonamide or (2S,3R)-3-(5-chloropyrimidin-2-yl)-N-(4-(4,6-dimethoxypyrimidin-5-yl)-5-((S)-5,5-dimethyltetrahydrofuran-3-yl)-4H-1,2,4-triazol-3-yl)butane-2-sulfonamide [Example 318.0]",13
10,"(2S,3R)-N-(4-(1,3-dimethoxy-2-propanyl)-5-((2R,5R)-5-methyltetrahydro-2-furanyl)-4H-1,2,4-triazol-3-yl)-3-(5-fluoro-2-pyrimidinyl)-2-butanesulfonamide or (2S,3R)-N-(4-(1,3-dimethoxy-2-propanyl)-5-((2S,5S)-5-methyltetrahydro-2-furanyl)-4H-1,2,4-triazol-3-yl)-3-(5-fluoro-2-pyrimidinyl)-2-butanesulfonamide [Example 368.0]",100
11,"(2S,3R)-N-(4-(1,3-dimethoxy-2-propanyl)-5-((2R,5R)-5-methyltetrahydro-2-furanyl)-4H-1,2,4-triazol-3-yl)-3-(5-fluoro-2-pyrimidinyl)-2-butanesulfonamide or (2S,3R)-N-(4-(1,3-dimethoxy-2-propanyl)-5-((2S,5S)-5-methyltetrahydro-2-furanyl)-4H-1,2,4-triazol-3-yl)-3-(5-fluoro-2-pyrimidinyl)-2-butanesulfonamide [Example 369.0]",21
12,"(2S,3R)-N-(4-(1,3-dimethoxy-2-propanyl)-5-((2R,5R)-5-methyltetrahydro-2-furanyl)-4H-1,2,4-triazol-3-yl)-3-(5-methoxy-2-pyrazinyl)-2-butanesulfonamide or (2S,3R)-N-(4-(1,3-dimethoxy-2-propanyl)-5-((2S,5S)-5-methyltetrahydro-2-furanyl)-4H-1,2,4-triazol-3-yl)-3-(5-methoxy-2-pyrazinyl)-2-butanesulfonamide [Example 376.0]",120
13,"(2S,3R)-N-(4-(1,3-dimethoxy-2-propanyl)-5-((2R,5R)-5-methyltetrahydro-2-furanyl)-4H-1,2,4-triazol-3-yl)-3-(5-methoxy-2-pyrazinyl)-2-butanesulfonamide or (2S,3R)-N-(4-(1,3-dimethoxy-2-propanyl)-5-((2S,5S)-5-methyltetrahydro-2-furanyl)-4H-1,2,4-triazol-3-yl)-3-(5-methoxy-2-pyrazinyl)-2-butanesulfonamide [Example 377.0]",24
14,"(2S,3R)-N-(4-(1,3-dimethoxy-2-propanyl)-5-((2R,5R)-5-methyltetrahydro-2-furanyl)-4H-1,2,4-triazol-3-yl)-3-(5-methoxy-2-pyrimidinyl)-2-butanesulfonamide or (2S,3R)-N-(4-(1,3-dimethoxy-2-propanyl)-5-((2S,5S)-5-methyltetrahydro-2-furanyl)-4H-1,2,4-triazol-3-yl)-3-(5-methoxy-2-pyrimidinyl)-2-butanesulfonamide [Example 370.0]",620
15,"(2S,3R)-N-(4-(1,3-dimethoxy-2-propanyl)-5-((2R,5R)-5-methyltetrahydro-2-furanyl)-4H-1,2,4-triazol-3-yl)-3-(5-methoxy-2-pyrimidinyl)-2-butanesulfonamide or (2S,3R)-N-(4-(1,3-dimethoxy-2-propanyl)-5-((2S,5S)-5-methyltetrahydro-2-furanyl)-4H-1,2,4-triazol-3-yl)-3-(5-methoxy-2-pyrimidinyl)-2-butanesulfonamide [Example 371.0]",15
16,"(2S,3R)-N-(4-(2,6-bis((trideutero)methyloxy)phenyl)-5-((3R)-tetrahydro-3-furanyl)-4H-1,2,4-triazol-3-yl)-3-(5-chloro-2-pyrimidinyl)-2-butanesulfonamide or (2S,3R)-N-(4-(2,6-bis((trideutero)methyloxy)phenyl)-5-((3S)-tetrahydro-3-furanyl)-4H-1,2,4-triazol-3-yl)-3-(5-chloro-2-pyrimidinyl)-2-butanesulfonamide [Example 391.0]",15
17,"(2S,3R)-N-(4-(2,6-bis((tridutero)methyloxy)phenyl)-5-((3R)-tetrahydro-3-furanyl)-4H-1,2,4-triazol-3-yl)-3-(5-chloro-2-pyrimidinyl)-2-butanesulfonamide or (2S,3R)-N-(4-(2,6-bis((trideutero)methyloxy)phenyl)-5-((3S)-tetrahydro-3-furanyl)-4H-1,2,4-triazol-3-yl)-3-(5-chloro-2-pyrimidinyl)-2-butanesulfonamide [Example 392.0]",25
18,"(2S,3R)-N-(4-(2,6-difluorophenyl)-5-((3R)-tetrahydro-3-furanyl)-4H-1,2,4-triazol-3-yl)-3-(5-methyl-2-pyrimidinyl)-2-butanesulfonamide or (2S,3R)-N-(4-(2,6-difluorophenyl)-5-((3S)-tetrahydro-3-furanyl)-4H-1,2,4-triazol-3-yl)-3-(5-methyl-2-pyrimidinyl)-2-butanesulfonamide [Example 20.0]",160
19,"(2S,3R)-N-(4-(2,6-difluorophenyl)-5-((3R)-tetrahydro-3-furanyl)-4H-1,2,4-triazol-3-yl)-3-(5-methyl-2-pyrimidinyl)-2-butanesulfonamide or (2S,3R)-N-(4-(2,6-difluorophenyl)-5-((3S)-tetrahydro-3-furanyl)-4H-1,2,4-triazol-3-yl)-3-(5-methyl-2-pyrimidinyl)-2-butanesulfonamide [Example 21.0]",110
20,"(2S,3R)-N-(4-(2,6-difluorophenyl)-5-((3S)-tetrahydro-2H-pyran-3-yl)-4H-1,2,4-triazol-3-yl)-3-(5-methyl-2-pyrimidinyl)-2-butanesulfonamide or (2S,3R)-N-(4-(2,6-difluorophenyl)-5-((3R)-tetrahydro-2H-pyran-3-yl)-4H-1,2,4-triazol-3-yl)-3-(5-methyl-2-pyrimidinyl)-2-butanesulfonamide [Example 22.0]",260

# Reference: US10150760B2, “Compounds for use in preparing heterocyclic triazole agonists of the APJ receptor” (AMGEN INC., priority 2016, dated 2018)
